PubChem BioAssay (NCI)
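1) Cells in 96-well plates. 2) Compound, 48 h, 5 concentrations. 3) Linear interpolation between surrounding doses. 4) Unreached endpoint = highest concentration. Definition used: TGI = concentration required for complete inhibition of growth.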

How the values were obtained:
Test in all cases: NCI tumour cell line growth inhibition, 48 h
[1] = system: CAKI-1 renal
[2] = system: IGROV1 ovarian
[3] = system: LOX IMVI melanoma
[4] = system: M14 melanoma
[5] = system: NCI-H226 lung
[6] = system: NCI-H460 lung
[7] = system: NCI-H522 lung
[8] = system: TK-10 renal

Row | SMILES | TGI [1] [µM] | TGI [2] [µM] | TGI [3] [µM] | TGI [4] [µM] | TGI [5] [µM] | TGI [6] [µM] | TGI [7] [µM] | TGI [8] [µM]
1 | C#C[C@]1(O)CC[C@H]2[C@@H]3CCC4=C/C(=N/NC(=O)c5cccc6cc7ccccc7nc56)CC[C@@H]4[C@H]3CC[C@@]21CC | > 100 | > 100 | > 100 | > 100 | > 100 | > 100 |  | 
2 | Oc1cc(-c2ccc(Cl)cc2)cn2c1nc1ccccc12 | > 100 | > 100 | > 100 | > 100 | > 100 | > 100 | > 100 | > 100
3 | CC1=C(C)C1[N+](=O)[O-] | > 100 | > 100 | > 100 | > 100 | > 100 | > 100 | > 100 | > 100
4 | NC(=O)C1Cc2cc3c(cc21)OCO3 (stereo not drawn) | > 100 | > 100 | > 100 | > 100 | > 100 | > 100 | > 100 | > 100
5 | O=[N+]([O-])c1cc2c(c([N+](=O)[O-])c1)NCc1ccccc1O2 | > 100 | > 100 | > 100 |  | > 100 | > 100 | > 100 | > 100
6 | COc1cccc(-c2nc3ccccc3c(=O)[nH]2)c1OC | > 100 | > 100 |  | > 100 | > 100 | > 100 |  | 
7 | COc1cc([C@H]2CC(=O)C[C@H](c3cc(OC)c(OC)c(OC)c3)C23C(=O)c2ccccc2C3=O)cc(OC)c1OC | > 100 | > 100 |  | > 100 | > 100 | > 100 | 95.1 | > 100
8 | CN1CCCOC(c2ccc([N+](=O)[O-])cc2)O1 (stereo not drawn) | > 100 | > 100 | > 100 | > 100 | > 100 | > 100 | > 100 | > 100
9 | CC(=O)N1C(NN(C)C)CCN1c1ccccc1 (stereo not drawn) | > 10 | > 10 |  | > 10 |  |  |  | > 10
10 | C/C(=N\NC(=O)c1ccncc1)c1ccccc1F | > 10 | > 10 | > 10 | > 10 | > 10 | > 10 |  | > 10
11 | CN(C)CCCNc1c(C#N)[n+]([O-])c2cc(Cl)ccc2[n+]1[O-] | > 51.8 | 10.5 | 56.9 | 37.6 | 48.5 | 13.2 | 14.1 | > 39.9
12 | N#Cc1cc(-c2nc3c(F)cccc3s2)ccc1N | > 100 | > 100 | > 100 | > 100 | > 100 | > 100 | > 100 | > 100
13 | Cc1c2c(Cl)c3c(c(Cl)c2c(C)c2c(Cl)c4c(c(Cl)c12)C(c1ccccc1)(c1ccccc1)C4(c1ccccc1)c1ccccc1)C(c1ccccc1)(c1ccccc1)C3(c1ccccc1)c1ccccc1 | > 100 | > 100 | > 100 | > 100 | > 100 | > 100 | > 100 | > 100
14 | COC(=O)[C@@H](NC(=O)N(CCC#N)CCCN(C(=O)N[C@H](Cc1ccccc1)C(=O)OC)c1ccccc1)C(C)C | > 100 | > 100 | > 100 | > 100 | > 100 |  | > 100 | > 100
15 | C=CC[C@@]1([C@H](C=C)COCc2ccc(OC)cc2)CC[C@]2(C)OC(C)(C)[C@@H](c3ccccc3)N2C1=S | > 100 |  | > 100 | > 100 | > 100 | > 100 | > 100 | > 100
16 | NC1CC(Cl)c2c(Cl)sc(Cl)c21 (stereo not drawn) | > 100 | > 100 | > 100 | > 100 | > 100 | > 100 | 0.049 | > 100
17 | O=C1C=CC2(O)OCCN(CCO)C2=C1 (stereo not drawn) (tested in a mixture with another compound) | > 100 | > 100 | > 100 | > 100 | > 100 | > 100 | > 100 | > 100
18 | O=P1(c2ccccc2)C(c2ccccc2)=CC=C1c1ccccc1 | > 100 | > 100 | 37.8 | > 100 | > 100 | > 100 | 65.2 | 60.1
19 | C[N+]1(Cc2ccc(Cl)c(Cl)c2)CCCC1C1CCCN(Cc2ccc(Cl)c(Cl)c2)C1 (stereo not drawn) | > 100 | > 100 | > 100 | > 100 |  | > 100 | > 100 | > 100
20 | COCn1cnc2c(=O)n(-c3ccc(OC)cc3)c(=S)n(-c3ccc(OC)cc3)c21 | > 100 | > 100 | > 100 | > 100 | > 100 | > 100 | > 100 | > 100
21 | COc1cccc(N2C(=O)/C(=C\c3ccccc3)SC2c2cc(OC)c(OC)c(OC)c2)c1 (stereo not drawn) | > 100 | > 100 | > 100 | > 100 | > 100 |  | > 100 | > 100
22 | COc1ccc2c(c1)-c1[nH]c3ccc(OC)cc3c1CC2 | 34.8 | 26.8 | 29.8 | 29.5 | 24.3 | 32.9 | 17.6 | 31.5
23 | O=C(Cc1ccc(Cl)cc1)Nc1ccc2oc(-c3ccccc3)nc2c1 | > 100 | > 100 | > 100 | > 100 | > 100 | > 100 | > 100 | > 100
24 | C=CCN1C(=O)/C(=C/c2ccc(C)cc2)NC1=S | > 100 | > 100 | > 100 | > 100 | > 100 | > 100 | > 100 | > 100
25 | Cc1ccc(N(C(=O)Nc2ccc(F)c(Cl)c2)C2=NCC(C)S2)cc1 (stereo not drawn) | > 100 | > 100 | > 100 |  |  | > 100 |  | > 100
26 | Nc1ncnc2c1ncn2C1OC(CO)C(O)C(O)C1O (stereo not drawn) | > 100 | > 100 | > 100 | > 100 | > 100 | > 100 | > 100 | > 100

Row | SMILES | TGI [1] [µM] | TGI [2] [µM] | TGI [3] [µM] | TGI [4] [µM] | TGI [5] [µM] | TGI [6] [µM] | TGI [7] [µM] | TGI [8] [µM]
27 | O=C1CCCC1C(O)(C(F)(F)F)C(F)(F)F (stereo not drawn) | > 100 | > 100 | > 100 | > 100 | > 100 | > 100 | > 100 | > 100
28 | CCN(CC)c1c(-c2c(N(CC)CC)c(OC(C)=O)c3sccn3c2=O)c(=O)n2ccsc2c1OC(C)=O | > 100 | > 100 | > 100 | > 100 | > 100 | > 100 |  | > 100
29 | CC1(C)C/C(=N/O)c2c(nc3ccc4ccccc4c3c2-c2ccc(Cl)cc2)C1 | 26.3 | 31.6 | 26.6 | > 100 | 46.3 | 19.7 | 28.6 | 33.9
30 | COc1ccc(N2C(=O)C(C)SC2c2cc3cc(Br)ccc3nc2Cl)cc1 (stereo not drawn) | > 100 | > 100 | > 100 | > 100 | > 100 | > 100 | 78.6 | 91.4
31 | CC1=C(C(=O)N(C(C)C)C(C)C)CC(C(=O)N(C(C)C)C(C)C)=C(C)N1 | > 100 | > 100 | > 100 | > 100 | > 100 | > 100 | > 100 | > 100
32 | CN1C(=O)C(c2c[nH]c3ccccc23)N(C)C(=O)C1c1c[nH]c2ccccc12 (stereo not drawn) | > 100 | > 100 | > 100 | > 100 |  | > 100 | > 100 | > 100
33 | CN(C(=O)C1CCCCCC1=O)c1ccccc1Cl (stereo not drawn) | > 100 | > 100 | > 100 | > 100 | > 100 | > 100 | > 100 | > 100
34 | CC1(c2cccc(Cl)c2)CC(c2cccc(Cl)c2)=C(C#N)C(=C(C#N)C#N)N1 (stereo not drawn) | 32.3 | 31.8 | 39 | 31.9 | 60.9 | 94.3 |  | 31.8
35 | Cc1cc2nc(N3C(=O)/C(=C/c4ccccc4S)N=C3c3ccccc3)sc2cc1C | > 100 | > 100 | > 100 | > 100 |  | > 100 |  | > 100
36 | CCOc1cc2c(cc1O)CC[C@@H]1[C@@H]2CC[C@]2(C)C(N)CC[C@@H]12 (stereo partly drawn) | 22.7 | 12.6 | 10.9 | 25.2 | 10.4 | 11.6 | 11.9 | 15
37 | CC(C)(C)OC(=O)NC(CCC(=O)OCc1ccccc1)C(=O)NCCCO (stereo not drawn) | > 100 | > 100 | > 100 | > 100 | > 100 | > 100 | > 100 | > 100
38 | CC(C)(C)c1ccc(-n2c3nc(=O)n(-c4ccccc4CO)c(=O)c-3cc3ccccc32)cc1 | > 100 | > 100 | 37.9 | > 100 | > 100 | > 100 | > 100 | > 100
39 | Cc1ccc(N2CCC3(CC2)OCCO3)cc1 | > 100 | > 100 |  | > 100 | > 100 | > 100 | > 100 | > 100
40 | C[C@]12C[C@@H](c3ccccc3)Nc3ccccc3N1C(c1ccccc1)=NO2 | > 100 | > 100 |  | 93.3 | 90.8 | > 100 | 86.4 | > 100
41 | CC(C)=c1sc(=C(C)C)c2c1=NC(C)(C)N=2 | > 100 | > 100 | > 100 | > 100 |  | > 100 | > 100 | > 100
42 | COC(=O)C1(C(=O)OC)Cc2ccc(C)cc2C2=C1C(=O)c1ccccc1C2=O |  | 44.3 | 39.9 |  | > 100 | > 100 | 32 | > 100
43 | CC1=NN(C(=O)CC(=O)Nc2ccc(C)cc2)C(=O)C1N=Nc1ccc(S(=O)(=O)c2ccc(N=NC3C(=O)N(C(=O)CC(=O)Nc4ccc(C)cc4)N=C3C)cc2)cc1 (stereo not drawn) | > 100 | > 100 | > 100 | > 100 | > 100 | > 100 | > 100 | > 100
44 | O=c1n(-c2ccccc2)c(=O)n2n1C1Cc3ccccc3C12 (stereo not drawn) | > 100 | > 100 | > 100 | > 100 | > 100 | > 100 |  | > 100
45 | COC(=O)c1c2c(cc3c1CC1(Cc4ccc(C(C)=O)cc4C1)C3)CCC2 (stereo not drawn) | > 100 | > 100 | 60.2 |  | > 100 | > 100 | > 100 | > 100
46 | COc1ccc(/C=C2\N=C(SC)N(CN3CCCCC3)C2=O)cc1 |  | > 100 | > 100 | > 100 | > 100 |  | > 100 | > 100
47 | COc1c(Br)cc(/C=C(\C#N)c2cccnc2)cc1Br | > 100 | > 100 |  | > 100 | > 100 | > 100 | > 100 | > 100
48 | Cc1c(F)c(N)c2c(=O)cc(-c3ccc(N)c(F)c3)oc2c1F | 0.114 | 25.2 | 55.8 | > 100 | 36 | 24.2 | 30.3 | 6.72
49 | COc1cc(/C=C2\C(=O)N(c3ccccc3Cl)C(c3ccccc3)S2(=O)=O)cc(OC)c1OC (stereo not drawn) | > 100 |  | 50.5 | > 100 | > 100 | > 100 | 46.5 | > 100
50 | C=CCc1ccccc1CC1(OCC)OC(=O)c2ccccc21 (stereo not drawn) | > 100 | > 100 |  | > 100 | > 100 | > 100 | > 100 | > 100
51 | Cc1ccc(C2SC(N)=Nc3c2c(C)nn3C(=O)c2ccccc2O)cc1 (stereo not drawn) | > 10 | > 10 | > 10 | > 10 | > 10 | > 10 |  | > 10
52 | Cc1ccc2c(c1)CC1(Cc3c(C)cccc3C1=O)C2=O (stereo not drawn) |  | > 100 | > 100 | > 100 | > 100 | > 100 | > 100 | > 100
